Literature values in patent US10947168B2, “Solvent systems for dicyandiamide and/or alkyl thiophosphoric triamide and use in agricultural applications” (RHODIA OPERATIONS, priority 2014, dated 2021).

solubility in water: about 41 g/l
SMILES: N#CNC(=N)N [Dicyandiamide]
